The text below walks through data of patent US9650399B2, “Salicylic acid derivatives, pharmaceutically acceptable salt thereof, composition thereof and method of use thereof” (The Governing Council of the University of Toronto, priority 2012, dated 2017).

In one series the target is His-tagged STAT5. As to the kind of experiment: surface plasmon resonance (SPR) binding, STAT5. Also noted: species or system human. The note with it: SPR control experiment. How it is done: Interactions of His-tagged STAT3 with small molecules were investigated using SPR spectroscopy. The binding experiments were carried out on a ProteOn XPR36 (Bio-Rad) biosensor at 25° C. using the HTE sensor chip (Bio-Rad, Ontario, Canada). The flow cells of the sensor chip were loaded with a nickel solution at 30 μL/min for 120 s to saturate the Tris NTA surface with Ni(II) ions. Purified His-tagged STAT3 and STAT5 (SignalChem, British Columbia, Canada) in PBST buffer (PBS with 0.005% (v/v) Tween-20 and 0.001% DMSO pH 7.4) was injected in the first and second channels of the chip respectively in the vertical direction at a flow rate of […] for 300 s, which attained, on average, 8000 resonance unit (RU). After a wash with PBST buffer, inhibitors binding to the immobilized proteins were monitored by injecting a range of concentrations along with a blank at a flow rate of 100 μL/min for 200 s for each of these small molecules. When the injection of the small molecule inhibitor was completed, running buffer was allowed to flow over the immobilized substrates for the non-specifically bound inhibitors to dissociate for 600 s. Following dissociation of the inhibitors, the chip surface was regenerated with an injection of 1 M NaCl at a flow rate of […] for 18 s. […] Data were analyzed using ProteOn Manager Software version 3.1. […]

For series [1] the following is noted: cited from earlier work.
The subject of a further series is BTSC30M. As to the kind of experiment: alamarBlue cell viability, BTSC 30M. In kind it is cell-based, human. The note with it: BTSC 30M. Put shortly:
(§1)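 Patient-derived GBM brain tumour stem cells, dissociated spheres seeded at 1500 cells/96-well, or 3000 cells/96-well in one setup. Drug or DMSO vehicle added one day after plating. Viability read by alamarBlue after 72 hrs, triplicate wells.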

For another series, the system named is BTSC73M. As to the kind of experiment: alamarBlue cell viability, BTSC 73M. In kind it is cell-based, human. To be noted: BTSC 73M. Put shortly:
as §1

As for `CC(C)C[C@H](NC(=O)[C@@H](N)Cc1ccc(OP(=O)(O)O)cc1)C(=O)N1CCC[C@H]1C(=O)N[C@@H](CCC(N)=O)C(=O)N[C@H](C(=O)N[C@H](C(N)=O)C(C)C)[C@@H](C)O` [STAT3 peptide sequence], the “KD (STAT5)” value on His-tagged STAT5 is “No binding”.
For the compound “Cucurbitacin [Cucurbitacin 1, reference compound]”, the BBB permeability entry in series [1] is “poor BBB permeability”. The EC50 is 0.63 µM in the series with BTSC30M (read-out: EC50 v.s. 30M) and 0.7 µM in the series on BTSC73M (read-out: EC50 v.s. 73M). Besides, the IC50 was 0.63 ± 0.08 µM in the series with BTSC30M (read-out: IC50 (μM) 30M, Table 2, alamarBlue, 72 hrs) and 0.7 ± 0.06 µM in the series with BTSC73M (Table 2, alamarBlue, 72 hrs, read-out: IC50 (μM) 73M).
